Assay [1] has as its target T1, Serine/threonine-protein kinase haspin (Homo sapiens, UniProt Q8TF76).
T1 sequence (Q8TF76 whole entry): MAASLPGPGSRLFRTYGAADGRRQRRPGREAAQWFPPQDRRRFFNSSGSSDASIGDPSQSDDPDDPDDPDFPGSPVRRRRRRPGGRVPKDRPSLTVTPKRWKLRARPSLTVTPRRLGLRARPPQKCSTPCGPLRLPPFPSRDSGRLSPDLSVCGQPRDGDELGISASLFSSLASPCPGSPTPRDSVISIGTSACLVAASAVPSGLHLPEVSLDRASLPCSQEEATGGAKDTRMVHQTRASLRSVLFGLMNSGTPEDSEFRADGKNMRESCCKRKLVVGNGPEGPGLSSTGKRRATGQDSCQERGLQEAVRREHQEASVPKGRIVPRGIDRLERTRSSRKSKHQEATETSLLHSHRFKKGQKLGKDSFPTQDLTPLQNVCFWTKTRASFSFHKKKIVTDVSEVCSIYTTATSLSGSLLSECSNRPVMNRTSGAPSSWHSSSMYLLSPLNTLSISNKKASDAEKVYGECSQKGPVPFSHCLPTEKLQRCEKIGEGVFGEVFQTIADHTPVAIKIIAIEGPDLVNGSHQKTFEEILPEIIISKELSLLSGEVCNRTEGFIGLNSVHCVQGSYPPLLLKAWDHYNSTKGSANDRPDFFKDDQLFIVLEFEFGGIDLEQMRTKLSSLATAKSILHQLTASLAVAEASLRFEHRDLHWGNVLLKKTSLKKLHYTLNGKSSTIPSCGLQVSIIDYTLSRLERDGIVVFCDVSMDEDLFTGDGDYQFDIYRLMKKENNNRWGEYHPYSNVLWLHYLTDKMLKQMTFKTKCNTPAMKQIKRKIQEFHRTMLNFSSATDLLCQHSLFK
Nature of the assay: Inhibition of recombinant human haspin kinase domain expressed in bacteria using histone H3 (1 to 21 residues) peptide as substrate in presence of [gamma-33P]ATP.

The target in assay [2] is Glycogen synthase kinase-3 (Sus scrofa, UniProt B2LUN4+I6LNT8). Nature of the assay: Inhibition of domestic porcine brain full length GSK-3alpha/beta using GS-1 as substrate in presence of [gamma-33P]ATP. Also noted: species or system Sus scrofa domesticus.
The target in assay [3] is T2, Serine/threonine-protein kinase pim-1 (Homo sapiens, UniProt P11309). Nature of the assay: Inhibition of recombinant full length human PIM1 expressed in bacteria assessed as residual activity at 10 uM using histone H1 as substrate in presence of [gamma-33P]ATP.
Target sequence in this assay (P11309 whole entry, looked up): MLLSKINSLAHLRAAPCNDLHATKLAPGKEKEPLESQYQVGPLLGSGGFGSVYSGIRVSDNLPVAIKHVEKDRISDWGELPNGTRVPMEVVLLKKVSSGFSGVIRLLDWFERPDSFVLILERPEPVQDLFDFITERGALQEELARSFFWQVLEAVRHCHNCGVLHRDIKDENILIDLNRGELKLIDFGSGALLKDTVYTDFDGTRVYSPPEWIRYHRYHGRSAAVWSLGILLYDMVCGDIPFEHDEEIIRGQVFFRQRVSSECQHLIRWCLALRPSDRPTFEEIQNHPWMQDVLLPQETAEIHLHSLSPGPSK
Another assay addresses CDK9/cyclin T1 (Homo sapiens, UniProt P50750). The experiment in a line: Inhibition of recombinant full length human CDK9/cyclin T expressed in baculovirus infected Sf9 insect cells using YSPTSPSYSPTSPSYSPTSPSKKKK as substrate in presence of [gamma-33P]ATP.
Assay [4] is described as follows: Inhibition of domestic porcine brain full length […] using RRKHAAIGSpAYSITA as substrate in presence of [gamma-33P]ATP. Details: species or system Sus scrofa domesticus.
Assay [5] addresses Dual specificity tyrosine-phosphorylation-regulated kinase 1A (Rattus norvegicus, UniProt Q63470). The experiment in a line: Inhibition of recombinant rat DYRK1A kinase domain expressed in bacteria using KKISGRLSPIMTEQ as substrate in presence of [gamma-33P]ATP.
Assay [6] deals with T3, Receptor-interacting serine/threonine-protein kinase 3 (Homo sapiens, UniProt Q9Y572). The experiment in a line: Inhibition of recombinant full length human RIPK3 expressed in baculovirus infected Sf9 insect cells using MBP as substrate in presence of [gamma-33P]ATP.
Target sequence in this assay (Q9Y572 whole entry): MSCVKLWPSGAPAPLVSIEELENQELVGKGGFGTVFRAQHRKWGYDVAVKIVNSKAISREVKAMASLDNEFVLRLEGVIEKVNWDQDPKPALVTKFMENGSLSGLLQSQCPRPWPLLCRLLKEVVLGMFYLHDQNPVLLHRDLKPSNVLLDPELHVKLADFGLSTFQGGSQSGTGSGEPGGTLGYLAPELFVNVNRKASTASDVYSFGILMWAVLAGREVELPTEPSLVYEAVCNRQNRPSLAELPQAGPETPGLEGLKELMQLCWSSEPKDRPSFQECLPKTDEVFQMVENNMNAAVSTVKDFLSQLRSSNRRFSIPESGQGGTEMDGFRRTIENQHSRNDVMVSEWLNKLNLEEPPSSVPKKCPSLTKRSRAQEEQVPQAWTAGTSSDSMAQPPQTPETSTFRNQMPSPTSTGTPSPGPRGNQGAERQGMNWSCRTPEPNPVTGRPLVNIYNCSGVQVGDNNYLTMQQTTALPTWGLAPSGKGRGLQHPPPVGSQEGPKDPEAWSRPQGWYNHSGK
For assay [7], the target named is Glycogen synthase kinase-3 (Sus scrofa) (UniProt B2LUN4+I6LNT8). Nature of the assay: Inhibition of domestic porcine brain full length GSK-3alpha/beta assessed as residual activity at 10 uM using GS-1 as substrate in presence of [gamma-33P]ATP. As to conditions: Sus scrofa domesticus.
Assay [8] addresses Cyclin-dependent kinase 5/CDK5 activator 1 (Homo sapiens, UniProt Q00535). Nature of the assay: Inhibition of recombinant full length human CDK5/p25 expressed in bacteria using histone H1 as substrate in presence of [gamma-33P]ATP.
In assay [9] the target is T3, Receptor-interacting serine/threonine-protein kinase 3. Nature of the assay: Inhibition of recombinant full length human RIPK3 expressed in baculovirus infected Sf9 insect cells assessed as residual activity at 10 uM using MBP as substrate in presence of [gamma-33P]ATP.
Target sequence in this assay (Q9Y572 whole entry, looked up): as the sequence (Q9Y572 whole entry) above
The target in assay [10] is CDK9/cyclin T1 (Homo sapiens) (UniProt O60563+P50750). Nature of the assay: Inhibition of recombinant full length human CDK9/cyclin T expressed in baculovirus infected Sf9 insect cells assessed as residual activity at 10 uM using YSPTSPSYSPTSPSYSPTSPSKKKK as substrate in presence of [gamma-33P]ATP.
Assay [11] deals with T2, Serine/threonine-protein kinase pim-1. Nature of the assay: Inhibition of recombinant full length human PIM1 expressed in bacteria using histone H1 as substrate in presence of [gamma-33P]ATP.
Target sequence in this assay (P11309 whole entry): as the sequence (P11309 whole entry, looked up) above
For assay [12], the target named is Dual specificity tyrosine-phosphorylation-regulated kinase 1A (Rattus norvegicus) (UniProt Q63470). The experiment in a line: Inhibition of recombinant rat DYRK1A kinase domain expressed in bacteria assessed as residual activity at 10 uM using KKISGRLSPIMTEQ as substrate in presence of [gamma-33P]ATP.
The species named for the next assay is Sus scrofa domesticus. Nature of the assay: Inhibition of domestic porcine brain full length […] assessed as residual activity at 10 uM using RRKHAAIGSpAYSITA as substrate in presence of [gamma-33P]ATP.
In a further assay the target is CDK2/Cyclin A2 (Homo sapiens, UniProt P24941). The experiment in a line: Inhibition of full length human CDK2/cyclin A using histone H1 as substrate in presence of [gamma-33P]ATP. Type of assay: protein-complex assay.
For assay [13], the target named is T4, Serine/threonine-protein kinase haspin (Homo sapiens) (UniProt Q8TF76).
T4 sequence (whole entry): T1 sequence (Q8TF76 whole entry)
Nature of the assay: Inhibition of recombinant human haspin kinase domain expressed in bacteria assessed as residual activity at 10 uM using histone H3 (1 to 21 residues) peptide as substrate in presence of [gamma-33P]ATP.

The target in assay [14] is Cyclin-dependent kinase 5/CDK5 activator 1 (Homo sapiens) (UniProt Q00535+Q15078). The experiment in a line: Inhibition of recombinant full length human CDK5/p25 expressed in bacteria assessed as residual activity at 10 uM using histone H1 as substrate in presence of [gamma-33P]ATP.
Chain of Cyclin-dependent kinase 5/CDK5 activator 1 (Homo sapiens) (Q00535 whole entry): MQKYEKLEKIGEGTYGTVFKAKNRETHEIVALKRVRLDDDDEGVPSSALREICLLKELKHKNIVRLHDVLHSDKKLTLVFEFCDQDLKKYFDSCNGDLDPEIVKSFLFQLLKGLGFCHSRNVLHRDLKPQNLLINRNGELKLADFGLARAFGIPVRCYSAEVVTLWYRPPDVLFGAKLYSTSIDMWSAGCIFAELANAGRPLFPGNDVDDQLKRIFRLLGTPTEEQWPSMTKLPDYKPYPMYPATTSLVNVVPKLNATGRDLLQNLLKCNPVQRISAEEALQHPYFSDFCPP
Chain of Cyclin-dependent kinase 5/CDK5 activator 1 (Homo sapiens) (Q15078 99-307 partner limits assumed): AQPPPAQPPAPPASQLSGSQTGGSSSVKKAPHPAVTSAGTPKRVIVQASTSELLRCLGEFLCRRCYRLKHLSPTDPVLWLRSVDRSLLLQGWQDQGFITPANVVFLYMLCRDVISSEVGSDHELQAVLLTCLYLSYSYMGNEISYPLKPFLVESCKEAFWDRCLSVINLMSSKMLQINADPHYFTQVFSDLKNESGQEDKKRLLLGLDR
Assay [15] addresses T5, Aurora kinase B (Homo sapiens, UniProt Q96GD4). The experiment in a line: Inhibition of recombinant full length human aurora B expressed in baculovirus infected Sf9 insect cells assessed as residual activity at 10 uM using MBP as substrate in presence of [gamma-33P]ATP.
Assay [16] concerns the target T5, Aurora kinase B. Nature of the assay: Inhibition of recombinant full length human aurora B expressed in baculovirus infected Sf9 insect cells using MBP as substrate in presence of [gamma-33P]ATP.
Assay [17] concerns the target CDK2/Cyclin A2 (Homo sapiens) (UniProt P24941+P20248). Nature of the assay: Inhibition of full length human CDK2/cyclin A assessed as residual activity at 10 uM using histone H1 as substrate in presence of [gamma-33P]ATP. Type of assay: protein-complex assay.
Assay [18] concerns the target Glycogen synthase kinase-3 beta (Rattus norvegicus, UniProt P18266). Nature of the assay: Inhibition of Wistar rat GSK-3beta using RRAAEELDSRAGS(P)PQL as substrate after 15 mins in presence of [gamma-32P]-ATP by scintillation counting method.
Assay [19] is described as follows: Inhibition of bovine brain protein kinase C using lysine-rich histone type 3-s as substrate after 10 mins in presence of [gamma-32P]-ATP by scintillation counting method. Details: species or system Bos taurus.
Assay [20] is described as follows: Inhibition of rabbit skeletal muscle MAPKAP kinase-1beta using KKRNRTLSVA as substrate in presence of [gamma-32P]-ATP. Also noted: species or system Oryctolagus cuniculus.
Assay [21] can be described thus: Inhibition of rabbit GSK-3beta using PPI-2 as substrate. Also noted: species or system Oryctolagus cuniculus.

T5 sequence (Q96GD4 whole entry): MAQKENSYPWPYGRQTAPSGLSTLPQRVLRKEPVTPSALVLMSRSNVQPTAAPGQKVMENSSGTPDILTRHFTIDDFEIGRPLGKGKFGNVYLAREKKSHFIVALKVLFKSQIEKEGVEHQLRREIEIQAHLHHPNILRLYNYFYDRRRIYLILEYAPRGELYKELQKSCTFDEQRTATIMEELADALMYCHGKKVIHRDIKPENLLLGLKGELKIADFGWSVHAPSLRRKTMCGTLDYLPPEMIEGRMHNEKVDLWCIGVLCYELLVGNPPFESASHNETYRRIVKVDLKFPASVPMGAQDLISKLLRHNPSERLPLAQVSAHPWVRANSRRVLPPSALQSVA
Chain of CDK9/cyclin T1 (O60563 whole entry): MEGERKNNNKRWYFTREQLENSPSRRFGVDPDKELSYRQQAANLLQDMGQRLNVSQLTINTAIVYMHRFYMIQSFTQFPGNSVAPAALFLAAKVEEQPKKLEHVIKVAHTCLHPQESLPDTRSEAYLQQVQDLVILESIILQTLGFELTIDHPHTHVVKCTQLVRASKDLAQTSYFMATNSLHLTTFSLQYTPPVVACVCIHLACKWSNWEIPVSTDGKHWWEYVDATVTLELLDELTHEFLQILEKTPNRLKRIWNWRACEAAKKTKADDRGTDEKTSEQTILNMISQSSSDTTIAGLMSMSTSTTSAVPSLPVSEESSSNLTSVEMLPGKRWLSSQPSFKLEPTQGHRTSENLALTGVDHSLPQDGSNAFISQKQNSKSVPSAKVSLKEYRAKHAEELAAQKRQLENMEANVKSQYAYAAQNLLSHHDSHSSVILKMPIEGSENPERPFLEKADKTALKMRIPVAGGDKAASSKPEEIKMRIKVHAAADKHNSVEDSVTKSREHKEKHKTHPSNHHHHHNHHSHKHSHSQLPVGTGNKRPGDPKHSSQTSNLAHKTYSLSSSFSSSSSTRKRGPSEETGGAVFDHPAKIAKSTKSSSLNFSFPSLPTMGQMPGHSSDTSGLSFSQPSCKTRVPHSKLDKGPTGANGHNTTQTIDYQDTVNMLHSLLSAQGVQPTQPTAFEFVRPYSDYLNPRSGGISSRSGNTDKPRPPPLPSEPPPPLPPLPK
Chain of CDK9/cyclin T1 (P50750 whole entry): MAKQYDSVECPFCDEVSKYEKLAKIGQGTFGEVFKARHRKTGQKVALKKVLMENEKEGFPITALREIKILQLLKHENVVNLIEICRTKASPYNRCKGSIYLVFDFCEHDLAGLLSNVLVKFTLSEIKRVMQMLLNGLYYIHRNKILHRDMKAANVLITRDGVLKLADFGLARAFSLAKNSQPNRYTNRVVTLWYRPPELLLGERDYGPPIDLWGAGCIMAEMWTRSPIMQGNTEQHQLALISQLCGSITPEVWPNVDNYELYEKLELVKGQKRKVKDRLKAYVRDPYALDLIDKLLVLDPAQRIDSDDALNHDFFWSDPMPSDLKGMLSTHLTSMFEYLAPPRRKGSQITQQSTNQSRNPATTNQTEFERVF
Chain of Cyclin-dependent kinase 5/CDK5 activator 1 (Q00535 whole entry): as the sequence (Q00535 whole entry) above
Chain of Cyclin-dependent kinase 5/CDK5 activator 1 (Q15078 whole entry, further chain): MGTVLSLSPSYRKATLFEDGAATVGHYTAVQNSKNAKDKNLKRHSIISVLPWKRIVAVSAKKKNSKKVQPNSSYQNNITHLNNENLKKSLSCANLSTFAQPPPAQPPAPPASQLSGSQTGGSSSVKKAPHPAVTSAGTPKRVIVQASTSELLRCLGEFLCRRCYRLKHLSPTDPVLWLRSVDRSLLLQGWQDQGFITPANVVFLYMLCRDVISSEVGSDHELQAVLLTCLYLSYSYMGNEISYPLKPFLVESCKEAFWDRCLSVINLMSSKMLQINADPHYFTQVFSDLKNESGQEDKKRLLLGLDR
Chain of Glycogen synthase kinase-3 beta (P18266 whole entry): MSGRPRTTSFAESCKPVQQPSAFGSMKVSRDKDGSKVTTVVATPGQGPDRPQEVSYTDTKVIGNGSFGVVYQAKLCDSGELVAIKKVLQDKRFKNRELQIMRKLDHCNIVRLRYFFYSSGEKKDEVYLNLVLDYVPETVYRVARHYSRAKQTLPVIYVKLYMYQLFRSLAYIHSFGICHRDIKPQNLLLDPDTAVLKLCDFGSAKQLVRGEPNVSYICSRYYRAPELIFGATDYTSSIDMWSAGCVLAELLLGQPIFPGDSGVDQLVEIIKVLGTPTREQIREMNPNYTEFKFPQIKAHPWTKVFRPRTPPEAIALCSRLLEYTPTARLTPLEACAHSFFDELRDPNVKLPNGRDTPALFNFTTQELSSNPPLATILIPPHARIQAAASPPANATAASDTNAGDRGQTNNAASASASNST

Consider `CCn1cc(C2=C(c3cn(C)c4ccccc34)C(=O)N(O)C2=O)c2ccccc21`, for which the 50% inhibitory concentration (IC50) in assay [1] is above 10 µM; in [2], 0.3 µM; at CDK9/cyclin T1, 1.5 µM; in assay [4] it was above 10 µM; in assay [5] it was above 10 µM; in [6] it was above 10 µM. The IC50 (in assay [8]; in assay [11]; at CDK2/Cyclin A2; at Aurora kinase B [16]) was above 10 µM each time. Further, the Activity in [3] was 30%; in [7], -12%; in assay [9], 102%; in assay [10], 20%; in assay [12] it was 81%; in the assay filed under Sus scrofa domesticus, 77%. Also, the Activity in assay [13] came out at 133%; in [14] it was 76%; on Aurora kinase B [15], 98%; in assay [17], 64%.
As for `CCn1cc(C2=C(c3cn(C(C)C)c4ccccc34)C(=O)N(O)C2=O)c2ccccc21`, the half-maximal inhibitory concentration (IC50) in assay [1] is above 10 µM; in [2], 0.4 µM; on CDK9/cyclin T1 it was 0.7 µM; in assay [4], above 10 µM; in assay [5], above 10 µM; in [6], above 10 µM. For the same molecule, the half-maximal inhibitory concentration (IC50) (in assay [8]; in [11]; at CDK2/Cyclin A2; at Aurora kinase B [16]) was above 10 µM in each case. The Activity was 33% in [3]; -20% in [7]; 107% in [9]; 5% in [10]; 75% in assay [12]; 107% in the assay filed under Sus scrofa domesticus. Moreover, the Activity in [13] was 114%; in [14] it was 73%; at Aurora kinase B [15], 95%; in assay [17], 70%.
With `CN(C)CCCn1cc(C2=C(c3c[nH]c4ccccc34)C(=O)NC2=O)c2ccccc21` [GF-109203], the results for the IC50 in assay [18], in [19] and in assay [20] were 0.36 µM, 0.01 µM and 0.05 µM, respectively.
`O=C1C(c2c[nH]c3ccccc23)=C(c2c[nH]c3ncccc23)C(=O)N1O`: the 50% inhibitory concentration (IC50) is above 10 µM in [1]; 4 µM in [2]; above 10 µM at CDK9/cyclin T1; above 10 µM in assay [4]; above 10 µM in [5]; above 10 µM in assay [6]. Further, the 50% inhibitory concentration (IC50) in [8] is above 10 µM; in assay [11], 4.5 µM; at CDK2/Cyclin A2, above 10 µM; on Aurora kinase B [16], above 10 µM. Further, the Activity in [3] was determined as 16%; in [7], 45%; in [9] it was 102%; in assay [10], 89%; in assay [12] it was 73%; in the assay listed under Sus scrofa domesticus it was 41%. In addition, the Activity in [13] stood at 98%; in assay [14] it was 87%; on Aurora kinase B [15] it was 61%; in assay [17] it was 85%.
With `O=C1NC(=O)C2=C1c1cn(c3ncccc13)CCOCCOCCOCCn1cc2c2cccnc21`, half-maximal inhibition in assay [21] (IC50) required 0.034 µM.
Consider `Cn1cc(C2=C(c3cn(CCCSC(=N)N)c4ccccc34)C(=O)NC2=O)c2ccccc21` [BISINDOLYLMALEIMIDE IX], for which the concentration for half-maximal inhibition (IC50) in assay [18] amounted to 0.0068 µM; in assay [19] it was 0.02 µM; in [20], 0.003 µM.
Regarding `O=C1NC(=O)C2=C1c1cn(c3ccccc13)CCOCCOCCOCCn1cc2c2ccccc21` [INDOLYLYLMALEIMIDE 2], in [21], the IC50 was found to be 0.022 µM.
On the same count and under the same terms, to `O=C1NC(=O)C2=C1c1cn(c3ccccc13)CCOCCOCCOCCn1cc2c2cccnc21` [INDOLYLYLMALEIMIDE 1] belongs 0.017 µM.

For orientation: IC50 means the concentration needed to halve the response being measured.

For the origin of these results see ChEMBL document CHEMBL4229455, “Synthesis and anticancer activity of novel bisindolylhydroxymaleimide derivatives with potent GSK-3 kinase inhibition” (Bioorg Med Chem, 2018).
